pKi: −log10 of the molar value. Like-named read-outs stand apart in the source and are kept apart here.
Biological target: T1, full length human recombinant glucocorticoid receptor (Homo sapiens, UniProt P04150)
T1 construct: partially purified full length human recombinant glucocorticoid receptor; purchased Panvera/Invitrogen PV4302
T1 sequence (P04150 1-777): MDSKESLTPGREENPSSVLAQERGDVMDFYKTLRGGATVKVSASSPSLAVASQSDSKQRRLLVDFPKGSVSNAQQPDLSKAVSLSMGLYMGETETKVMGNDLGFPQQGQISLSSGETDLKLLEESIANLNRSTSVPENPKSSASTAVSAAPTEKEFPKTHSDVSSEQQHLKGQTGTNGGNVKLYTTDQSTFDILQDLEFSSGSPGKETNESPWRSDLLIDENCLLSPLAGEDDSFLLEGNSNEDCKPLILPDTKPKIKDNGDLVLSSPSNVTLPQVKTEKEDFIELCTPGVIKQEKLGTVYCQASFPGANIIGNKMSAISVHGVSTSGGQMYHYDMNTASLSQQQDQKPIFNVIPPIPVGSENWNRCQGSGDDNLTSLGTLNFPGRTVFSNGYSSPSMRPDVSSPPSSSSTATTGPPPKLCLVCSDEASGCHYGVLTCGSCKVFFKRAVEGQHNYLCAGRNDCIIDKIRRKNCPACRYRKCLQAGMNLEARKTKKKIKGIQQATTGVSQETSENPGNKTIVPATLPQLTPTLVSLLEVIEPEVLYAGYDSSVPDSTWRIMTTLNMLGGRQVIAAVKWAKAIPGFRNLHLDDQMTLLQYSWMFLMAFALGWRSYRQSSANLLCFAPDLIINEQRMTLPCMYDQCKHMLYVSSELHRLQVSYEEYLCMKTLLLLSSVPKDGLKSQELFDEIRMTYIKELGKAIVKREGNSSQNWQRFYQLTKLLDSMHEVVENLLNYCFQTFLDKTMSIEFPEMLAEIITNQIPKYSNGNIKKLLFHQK
Test: Glucocorticoid Receptor Binding Assay (fluorescence polarization competitor assay, Fluormone GS Far Red tracer)
How it was run: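 Partially purified full-length recombinant human GR with a stabilizing coactivator peptide was incubated with Fluormone GS Far Red tracer and serially diluted compound for 3 h at 22 °C in the dark, pH 7.4. Fluorescence polarization was read at 610-660 nm. IC50 came from sigmoidal fitting, and Ki from Cheng-Prusoff.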

pKi (Ki calculated from IC50 by Cheng-Prusoff, 3 hours at 22° C., pH 7.4)	pKi	SMILES
8.77		Cc1cc([C@@](O)([C@@H](C)c2ccc(Oc3ccc(C(=O)O)cc3C(F)(F)F)cc2Cl)C(F)(F)F)cn(C)c1=O (single isomer, unassigned) [Example 241, 4-{3-Chloro-4-[2-(1,5-dimethyl-6-oxo-1,6-dihydro-pyridin-3-yl)-3,3,3-trifluoro-2-hydroxy-1-methyl-propyl]-phenoxy}-3-trifluoromethyl-benzoic acid]
	7.42	CCOC(=O)c1ccc(COc2ccc([C@@H](C)[C@@](O)(c3cnc(C)cn3)C(F)(F)F)c(Cl)c2)cc1 (stereo in doubt) [Example 7, 4-{3-Chloro-4-[(1R,2R)-3,3,3-trifluoro-2-hydroxy-1-methyl-2-(5-methyl-pyrazin-2-yl)-propyl]-phenoxymethyl}-benzoic acid ethyl ester]
	7.47	Cc1cnc([C@](O)([C@H](C)c2ccc(OCc3ccc(CC(=O)O)cc3)cc2Cl)C(F)(F)F)cn1 (stereo in doubt) [Example 12, (4-{3-Chloro-4-[3,3,3-trifluoro-2-hydroxy-1-methyl-2-(5-methyl-pyrazin-2-yl)-propyl]-phenoxymethyl}-phenyl)-acetic acid]
	7.93	COC(=O)c1ccc(COc2ccc([C@@H](C)[C@@](O)(c3cnc(C)cn3)C(F)(F)F)c(Cl)c2)c(Cl)c1 (stereo in doubt) [Example 13, 3-Chloro-4-{3-chloro-4-[3,3,3-trifluoro-2-hydroxy-1-methyl-2-(5-methyl-pyrazin-2-yl)-propyl]-phenoxymethyl}-benzoic acid methyl ester]
	8.55	Cc1cnc([C@](O)([C@H](C)c2ccc(OCc3ccc(C(=O)O)cc3Cl)cc2Cl)C(F)(F)F)cn1 (stereo in doubt) [Example 14, 3-Chloro-4-{3-chloro-4-[3,3,3-trifluoro-2-hydroxy-1-methyl-2-(5-methyl-pyrazin-2-yl)-propyl]-phenoxymethyl}-benzoic acid]
	7.14	COc1cc(C(=O)O)ccc1COc1ccc([C@@H](C)[C@@](O)(c2cnc(C)cn2)C(F)(F)F)c(Cl)c1 (stereo in doubt) [Example 16, 4-{3-Chloro-4-[3,3,3-trifluoro-2-hydroxy-1-methyl-2-(5-methyl-pyrazin-2-yl)-propyl]-phenoxymethyl}-3-methoxy-benzoic acid]
	7.47	COC(=O)C(C)c1ccc(COc2ccc([C@@H](C)[C@@](O)(c3cnc(C)cn3)C(F)(F)F)c(Cl)c2)cc1 (stereo in doubt) [Example 17, 2-(4-{3-Chloro-4-[3,3,3-trifluoro-2-hydroxy-1-methyl-2-(5-methyl-pyrazin-2-yl)-propyl]-phenoxymethyl}-phenyl)-propionic acid methyl ester]
	6.96	Cc1cnc([C@](O)([C@H](C)c2ccc(OCc3ccc(C(C)C(=O)O)cc3)cc2Cl)C(F)(F)F)cn1 (stereo in doubt) [Example 18, 2-(4-{3-Chloro-4-[3,3,3-trifluoro-2-hydroxy-1-methyl-2-(5-methyl-pyrazin-2-yl)-propyl]-phenoxymethyl}-phenyl)-propionic acid]
	7.34	CCOC(=O)c1ccc(COc2ccc([C@@H](C)[C@@](O)(c3ccnc(Cl)c3)C(F)(F)F)c(Cl)c2)cc1 (stereo in doubt) [Example 19, 4-{3-Chloro-4-[2-(2-chloro-pyridin-4-yl)-3,3,3-trifluoro-2-hydroxy-1-methyl-propyl]-phenoxymethyl}-benzoic acid ethyl ester]
	8.54	C[C@H](c1ccc(OCc2ccc(C(=O)O)cc2)cc1Cl)[C@@](O)(c1ccnc(Cl)c1)C(F)(F)F (stereo in doubt) [Example 20, 4-{3-Chloro-4-[2-(2-chloro-pyridin-4-yl)-3,3,3-trifluoro-2-hydroxy-1-methyl-propyl]-phenoxymethyl}-benzoic acid]
	7.97	COc1cc(C(=O)O)ccc1COc1ccc([C@@H](C)[C@@](O)(c2ccnc(Cl)c2)C(F)(F)F)c(Cl)c1 (stereo in doubt) [Example 22, 4-{3-Chloro-4-[2-(2-chloro-pyridin-4-yl)-3,3,3-trifluoro-2-hydroxy-1-methyl-propyl]-phenoxymethyl}-3-methoxy-benzoic acid]
	8.33	C[C@H](c1ccc(OCc2ccc(CC(=O)O)cc2)cc1Cl)[C@@](O)(c1ccnc(Cl)c1)C(F)(F)F (stereo in doubt) [Example 24, (4-{3-Chloro-4-[2-(2-chloro-pyridin-4-yl)-3,3,3-trifluoro-2-hydroxy-1-methyl-propyl]-phenoxymethyl}-phenyl)-acetic acid]
	7.94	C[C@H](c1ccc(OS(=O)(=O)c2ccc(C(=O)O)cc2)cc1Cl)[C@@](O)(c1ccnc(Cl)c1)C(F)(F)F (stereo in doubt) [Example 25, 4-{3-Chloro-4-[2-(2-chloro-pyridin-4-yl)-3,3,3-trifluoro-2-hydroxy-1-methyl-propyl]-phenoxysulfonyl}-benzoic acid]
	6.70	C[C@H](c1ccc(C(=O)Nc2ccc(C(=O)O)cc2)cc1Cl)[C@@](O)(c1ccnc(Cl)c1)C(F)(F)F (stereo in doubt) [Example 26, 4-{3-Chloro-4-[2-(2-chloro-pyridin-4-yl)-3,3,3-trifluoro-2-hydroxy-1-methyl-propyl]-benzoylamino}-benzoic acid]
	7.02	COC(=O)c1ccnc(NC(=O)c2ccc([C@@H](C)[C@@](O)(c3ccnc(Cl)c3)C(F)(F)F)c(Cl)c2)c1 (stereo in doubt) [Example 27, 2-{3-Chloro-4-[-2-(2-chloro-pyridin-4-yl)-3,3,3-trifluoro-2-hydroxy-1-methyl-propyl]-benzoylamino}-isonicotinic acid methyl ester]
	6.77	C[C@H](c1ccc(C(=O)Nc2cc(C(=O)O)ccn2)cc1Cl)[C@@](O)(c1ccnc(Cl)c1)C(F)(F)F (stereo in doubt) [Example 29, 2-{3-Chloro-4-[2-(2-chloro-pyridin-4-yl)-3,3,3-trifluoro-2-hydroxy-1-methyl-propyl]-benzoylamino}-isonicotinic acid]
	6.61	CCOC(=O)C1CCN(C(=O)c2ccc([C@@H](C)[C@@](O)(c3ccnc(Cl)c3)C(F)(F)F)c(Cl)c2)CC1 (stereo in doubt) [Example 32, 1-{3-Chloro-4-[2-(2-chloro-pyridin-4-yl)-3,3,3-trifluoro-2-hydroxy-1-methyl-propyl]-benzoyl}-piperidine-4-carboxylic acid ethyl ester]
	6.47	C[C@H](c1ccc(C(=O)Nc2ccn(CC(=O)O)n2)cc1Cl)[C@@](O)(c1ccnc(Cl)c1)C(F)(F)F (stereo in doubt) [Example 35, (3-{3-Chloro-4-[2-(2-chloro-pyridin-4-yl)-3,3,3-trifluoro-2-hydroxy-1-methyl-propyl]-benzoylamino}-pyrazol-1-yl)-acetic acid]
	6.85	C[C@H](c1ccc(C(=O)NCc2ccc(C(=O)O)cc2)cc1Cl)[C@@](O)(c1ccnc(Cl)c1)C(F)(F)F (stereo in doubt) [Example 37, 4-({3-Chloro-4-[2-(2-chloro-pyridin-4-yl)-3,3,3-trifluoro-2-hydroxy-1-methyl-propyl]-benzoylamino}-methyl)-benzoic acid]
	6.56	C[C@H](c1ccc(C(=O)Nc2ccc(CC(=O)O)cc2)cc1Cl)[C@@](O)(c1ccnc(Cl)c1)C(F)(F)F (stereo in doubt) [Example 39, (4-{3-Chloro-4-[2-(2-chloro-pyridin-4-yl)-3,3,3-trifluoro-2-hydroxy-1-methyl-propyl]-benzoylamino}-phenyl)-acetic acid]
	6.54	C[C@H](c1ccc(C(=O)Nc2cccc(C(=O)O)c2)cc1Cl)[C@@](O)(c1ccnc(Cl)c1)C(F)(F)F (stereo in doubt) [Example 41, 3-{3-Chloro-4-[2-(2-chloro-pyridin-4-yl)-3,3,3-trifluoro-2-hydroxy-1-methyl-propyl]-benzoylamino}-benzoic acid]
	6.55	CCOC(=O)Cc1ccc(CNC(=O)c2ccc([C@@H](C)[C@@](O)(c3ccnc(Cl)c3)C(F)(F)F)c(Cl)c2)cc1 (stereo in doubt) [Example 42, [4-({3-Chloro-4-[2-(2-chloro-pyridin-4-yl)-3,3,3-trifluoro-2-hydroxy-1-methyl-propyl]-benzoylamino}-methyl)-phenyl]-acetic acid ethyl ester]
	6.81	C[C@H](c1ccc(C(=O)NCc2ccc(CC(=O)O)cc2)cc1Cl)[C@@](O)(c1ccnc(Cl)c1)C(F)(F)F (stereo in doubt) [Example 43, [4-({3-Chloro-4-[2-(2-chloro-pyridin-4-yl)-3,3,3-trifluoro-2-hydroxy-1-methyl-propyl]-benzoylamino}-methyl)-phenyl]-acetic acid]
